Test [1] has as its system NQO1 specific enzyme activity in BEAS-2B cells (marker for NRF2 activation). Briefly: Beas2B NQO1 MTT Assay. Type of test: cell-based. The following applies: Homo sapiens, NQO1 specific activity induction, 48 hours with compound. An excerpt:
NAD(P)H:quinone oxidoreductase 1 (NQO1), also called DT diaphorase, is a homodimeric FAD-containing enzyme that catalyses obligatory NAD(P)H-dependent two-electron reductions of quinones and protects cells against the toxic and neoplastic effects of free radicals and reactive oxygen species arising from one-electron reductions. The transcription of NQO1 is finely regulated by NRF2, and thus NQO1 activity is a good marker for NRF2 activation. On day one, frozen BEAS-2B cells (ATCC) were thawed in a water bath, counted, and re-suspended at a concentration of 250,000 cells/mL. Fifty microliters of cells were plated in 384 well black clear-bottomed plates. Plates were incubated at 37° C., 5% CO2 overnight. On day two, plates were centrifuged and 50 nL of compound or controls were added to the cells. Plates were then incubated at 37° C., 5% CO2 for 48 hours. On day four, medium was aspirated from the plate and crude cell lysates were made by adding 13 uL of 1× Cell Signaling Technologies lysis buffer with 1 Complete, Mini, EDTA-free Protease Inhibitor Tablet (Roche) for each 10 mL of lysis buffer. After lysis plates were incubated for 20 minutes at room temperature. Two microliters of lysate were removed for use in Cell Titer Glo assay (Promega) and MTT cocktail was prepared (Prochaska et. al. 1998) for measurement of NQO1 activity. Fifty microliters of MTT cocktail was added to each well, plate was centrifuged, and analysed on an Envision plate reader (Perkin Elmer) using Absorbance 570 nm label for 30 minutes. Product formation was measured kinetically and the pEC50 of NQO1 specific activity induction was calculated by plotting the change in absorbance (Delta OD/min) versus the log of compound concentration followed by 3-parameter fitting.
EC50s <1 nM (+++++), EC50s 10 nM-1 nM (++++), EC50s 10-100 nM (+++), EC50s 100 nM-1 μM (++), EC50s 1-10 μM (+), EC50s >10 μM (−), or were not determined (ND).

Test [2] addresses T1, full length NRF2 protein and full length Keap1 protein (Homo sapiens, UniProt Q14145).
T1 construct: full length NRF2 protein and full length Keap1 protein; His
Briefly: NRF2-Keap1 TR-FRET Low Protein Assay. Type of test: binding. The following applies: Keap1 FlagHis, biotin-NRF2. An excerpt: NRF2-Keap1 TR-FRET Low Protein Assay In the NRF2-Keap1 TR-FRET (time-resolved fluorescence resonance energy transfer) low protein assay, full length NRF2 protein and full length Keap1 protein (Keap1 exists a dimer) are used. The assay detects a compound's ability to displace the binding of Keap1 FlagHis with biotinylated Avi-NRF2 protein. Biotin-NRF2 binds to streptavidin-europium (a component of the detection mix) and Keap1 FlagHis is recognized by anti-Flag APC (allophycocyanin) antibody (also a component of the detection mix). If binding occurs between the two proteins, there will be an energy transfer from the Eu+3 (donor) at 615 nm to the APC (acceptor) at 665 nm. A potential NRF2 inhibitor will cause a reduction in the TR-FRET signal by interfering with the binding of Keap1 to NRF2.
Ten nanoliters of 100× compound dose response curves (serial 3-fold dilutions) in DMSO were stamped using an Echo liquid handling system (Labcyte) into 384-well, low volume, black assay plates (Greiner, #784076), with DMSO in columns 6 and 18. An additional 90 nl DMSO was added to each well, to bring the total volume to 100 nl per well. The top concentration of compound was located in columns 1 and 13, with the serial dilutions going across the row. All reagents were diluted in assay buffer (50 mM Tris, pH 8.0, 5 mM MgCl2, 100 mM NaCl, 0.005% BSA, 1 mM DTT, and 2 mM CHAPS. The BSA, DTT, and CHAPS were added to the assay buffer on the day of assay. Using a Multidrop Combi (Thermo Electron Corporation) equipped with a metal tip dispenser, 5 ul of 1.25 nM Keap1 FlagHis protein was added to all wells of the compound plate, with the exception of the wells in column 18. Wells in column 18 received 5 ul of assay buffer instead. Plates were centrifuged at 500 rpm for 1 minute, covered with a plate lid, and incubated at 37° C. for 2.25 hours. Plates were then removed from the incubator and allowed to cool to RT for 15 minutes. Five microliters of 2.5 nM biotin-NRF2 protein was then added to all wells of the plates and the plates were spun at 500 rpm for 1 minute, followed by incubating at 4° C. for 1.25 hours. The plates were then allowed to warm to RT for 15 minutes, followed by the addition of 10 ul of detection mix (1 nM Streptavidin Eu+ W1024 and 5 ug/ml mouse anti-DYKDDDDK IgG conjugated to SureLight APC antibody; both from Columbia Biosciences) to all wells. Plates were spun at 500 rpm for 1 minute, incubated for 1 hour at RT, and read on an Envision plate reader using a 320 nm excitation filter and 615 nm and 665 nm emission filters. Compound response (% inhibition) and potency (pIC50) were calculated based on the ratio of the two emissions (665 nm/615 nm) and then the transformed data is normalized against controls in the assay (control 1=1% DMSO in the presence of NRF2 and Keap1 protein and control 2=1% DMSO in the presence of only the NRF2 protein). Data analysis was handled using the software package Abase XE (Surrey, United Kingdom). The % inhibition values were calculated from the ratio (transformed) data by the equation:
100−(100*(compound response−average control 2)/(average control 1−average control2)).
For calculation of pIC50s, Abase XE used a four-parameter equation.
IC50s<10 nM (+++++), IC50s 10-100 nM (++++), IC50s 100 nM-1 uM (+++), IC50s 1-10 uM (++). & IC50s 10 uM-100 uM (+), IC50s >100 uM (−), or were not determined (ND).
Background: Time-resolved FRET reads energy transfer from a long-lived donor to a nearby acceptor.

Structures are written as SMILES.

As usually defined, the EC50 is the concentration giving half of the maximal effect.

T1 sequence (Q14145 whole entry): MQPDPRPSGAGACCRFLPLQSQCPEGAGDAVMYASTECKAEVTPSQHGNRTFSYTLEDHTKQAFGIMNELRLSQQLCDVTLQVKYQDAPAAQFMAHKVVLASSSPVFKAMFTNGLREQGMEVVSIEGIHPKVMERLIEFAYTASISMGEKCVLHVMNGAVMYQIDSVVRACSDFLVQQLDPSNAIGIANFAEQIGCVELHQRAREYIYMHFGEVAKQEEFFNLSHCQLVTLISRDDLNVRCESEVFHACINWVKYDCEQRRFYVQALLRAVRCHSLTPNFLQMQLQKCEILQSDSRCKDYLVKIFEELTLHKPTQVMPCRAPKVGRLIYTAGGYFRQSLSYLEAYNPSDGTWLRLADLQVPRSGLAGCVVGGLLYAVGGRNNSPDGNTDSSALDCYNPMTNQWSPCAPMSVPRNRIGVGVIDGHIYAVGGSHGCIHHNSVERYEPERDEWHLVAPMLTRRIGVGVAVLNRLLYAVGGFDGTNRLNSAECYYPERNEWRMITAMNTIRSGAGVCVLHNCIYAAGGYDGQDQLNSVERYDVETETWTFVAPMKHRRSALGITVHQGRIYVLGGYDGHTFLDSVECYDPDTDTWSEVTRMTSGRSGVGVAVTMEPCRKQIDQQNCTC

For `C[C@H]1Cc2ccc(Br)cc2S(=O)(=O)N(Cc2cccc(-n3ccc(C(=O)O)c3[C@@H]3C[C@H]3c3cn(C)nn3)c2)C1` [Example 8, 1-(3-(((S)-8-bromo-4-methyl-1,1-dioxido-4,5-dihydrobenzo[f][1,2]thiazepin-2(3H)-yl)methyl)phenyl)-2-((1R,2R)-2-(1-methyl-1H-1,2,3-triazol-4-yl)cyclopropyl)-1H-pyrrole-3-carboxylic acid], the values for the EC50 in test [1] and in test [2] were 0.001 to 0.01 µM and 0.01 to 0.1 µM, respectively.

Take `CC[C@H]1Cc2ccc(Br)cc2S(=O)(=O)N(Cc2cccc(-n3ccc(C(=O)O)c3[C@@H]3C[C@H]3c3cn(C)nn3)c2)C1` [Example 9, 1-(3-(((S)-8-bromo-4-ethyl-1,1-dioxido-4,5-dihydrobenzo[f][1,2]thiazepin-2(3H)-yl)methyl)phenyl)-2-((1R,2R)-2-(1-methyl-1H-1,2,3-triazol-4-yl)cyclopropyl)-1H-pyrrole-3-carboxylic acid]: the values for the EC50 in test [1] and in test [2] were less than 0.001 µM and less than 0.01 µM, respectively.

For the compound `C[C@H](Oc1cccc(-c2cccc(-n3ccc(C(=O)O)c3[C@H]3C[C@@H]3c3cn(C)nn3)c2)c1)C1CCCCC1` [Example 17, 1-(3′-((S)-1-cyclohexylethoxy)-[1,1′-biphenyl]-3-yl)-2-((1S,2S)-2-(1-methyl-1H-1,2,3-triazol-4-yl)cyclopropyl)-1H-pyrrole-3-carboxylic acid], the EC50 in test [1] lay in the range of 0.01 to 0.1 µM; in test [2] it was 0.1 to 1 µM.

As for `CCC[C@@H]1CCCCN1C(=O)c1cccc(-c2cccc(-n3ccc(C(=O)O)c3[C@@H]3C[C@H]3c3cn(C)nn3)c2)c1Br` [Example 22], the EC50 in test [1] and in test [2] was 0.01 to 0.1 µM throughout.

As for `CCC[C@@H]1CCCCN1C(=O)c1cc(F)cc(-c2cccc(-n3ccc(C(=O)O)c3[C@@H]3C[C@H]3c3cn(C)nn3)c2)c1` [Example 23], the concentration for a half-maximal effect (EC50) in test [1] and in test [2] was 0.01 to 0.1 µM throughout.

Regarding `CCC[C@@H]1CCCCN1C(=O)c1cccc(-c2cccc(-n3ccc(C(=O)O)c3[C@@H]3C[C@H]3c3cn(C)nn3)c2)c1C(F)(F)F` [Example 24], the EC50 in test [1] and in test [2] was 1 to 10 µM in each case.

The values above are taken from patent publication US20200031820A1, “3-CARBOXYLIC ACID PYRROLES AS NRF2 REGULATORS” (GLSXOSMITHKLINE INTELLECTUAL PROPERTY DEVELOPMENT LIMITED, priority 2016, published 2020).
